Results as given in ChEMBL document CHEMBL1201862, “PubChem BioAssay data set” (2004).
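Briefly, cells in 96-well plates were exposed to five compound concentrations for 48 h, and endpoints were estimated by linear interpolation. Abbreviation: GI50, concentration required for 50% inhibition of growth.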 Activity calls are given as the source filed them. Rule as the data show it: active = GI50 up to about 1.1 µM and inactive = higher.

Columns and labels:
Assay in all cases: DTP human tumour cell line panel, 48 h
UO-31 = tested on: UO-31
DU-145 = tested on: DU-145
Malme-3M = tested on: Malme-3M
OVCAR-8 = tested on: OVCAR-8
M14 = tested on: M14
IGROV-1 = tested on: IGROV-1
ACHN = tested on: ACHN
LOX IMVI = tested on: LOX IMVI
BT-549 = tested on: BT-549
SR = tested on: SR
MDA-N = tested on: MDA-N
HL-60 = tested on: HL-60
MCF7 = tested on: MCF7
HCC 2998 = tested on: HCC 2998
OVCAR-3 = tested on: OVCAR-3
UACC-62 = tested on: UACC-62
NCI-H226 = tested on: NCI-H226
SK-MEL-2 = tested on: SK-MEL-2
CCRF-CEM = tested on: CCRF-CEM
786-0 = tested on: 786-0
Hs-578T = tested on: Hs-578T
SNB-19 = tested on: SNB-19
MOLT-4 = tested on: MOLT-4
HOP-62 = tested on: HOP-62
SF-268 = tested on: SF-268
HCT-15 = tested on: HCT-15
EKVX = tested on: EKVX
SW-620 = tested on: SW-620
K562 = tested on: K562
HCT-116 = tested on: HCT-116
A549 = tested on: A549
NCI/ADR-RES = tested on: NCI/ADR-RES
MDA-MB-435 = tested on: MDA-MB-435
U-251 = tested on: U-251
NCI-H23 = tested on: NCI-H23
HOP-92 = tested on: HOP-92
NCI-H522 = tested on: NCI-H522
RXF 393 = tested on: RXF 393
HT-29 = tested on: HT-29
CAKI-1 = tested on: CAKI-1
SNB-75 = tested on: SNB-75
SK-OV-3 = tested on: SK-OV-3
TK-10 = tested on: TK-10
PC-3 = tested on: PC-3
SK-MEL-5 = tested on: SK-MEL-5
COLO 205 = tested on: COLO 205
KM12 = tested on: KM12
T47D = tested on: T47D
UACC-257 = tested on: UACC-257
A498 = tested on: A498
OVCAR-4 = tested on: OVCAR-4
SF-295 = tested on: SF-295
RPMI-8226 = tested on: RPMI-8226
SK-MEL-28 = tested on: SK-MEL-28
SN12C = tested on: SN12C
SF-539 = tested on: SF-539
OVCAR-5 = tested on: OVCAR-5
NCI-H460 = tested on: NCI-H460
MDA-MB-231 = tested on: MDA-MB-231
XF498 = tested on: XF498
LXFL 529 = tested on: LXFL 529
M19-MEL = tested on: M19-MEL
DMS-273 = tested on: DMS-273
DLD-1 = tested on: DLD-1
KM-20L2 = tested on: KM-20L2
SNB-78 = tested on: SNB-78
DMS-114 = tested on: DMS-114

For CCCCCNC(=O)c1cc2cc(CCl)ccc2oc1=O, the GI50 (UO-31) was 1.63 µM (inactive), the GI50 (DU-145) was 2.26 µM (inactive) and the GI50 (Malme-3M) was 2.36 µM (inactive). The GI50 (OVCAR-8) was 35.7 µM (inactive), the GI50 (M14) was 9.12 µM (inactive) and the GI50 (IGROV-1) was 4.71 µM (inactive). The GI50 (ACHN) was 2.01 µM (inactive), the GI50 (LOX IMVI) was 17.3 µM (inactive) and the GI50 (BT-549) was 6.49 µM (inactive). The GI50 (SR) was 5.38 µM (inactive), the GI50 (MDA-N) was 9.42 µM (inactive) and the GI50 (HL-60) was 1.9 µM (inactive). The GI50 (MCF7) was 5.97 µM (inactive), the GI50 (HCC 2998) was 1.77 µM (inactive) and the GI50 (OVCAR-3) was 8.02 µM (inactive). For the same compound, the GI50 (UACC-62) was 2.45 µM (inactive), the GI50 (NCI-H226) was 14.2 µM (inactive) and the GI50 (SK-MEL-2) was 3.1 µM (inactive). The GI50 (CCRF-CEM) was > 100 µM (inactive), the GI50 (786-0) was 1.34 µM (inactive) and the GI50 (Hs-578T) was 6.37 µM (inactive). For the same compound, the GI50 (SNB-19) was 15.9 µM (inactive), the GI50 (MOLT-4) was 6.68 µM (inactive) and the GI50 (HOP-62) was 5.69 µM (inactive). The GI50 (SF-268) was 3.19 µM (inactive), the GI50 (HCT-15) was 1.95 µM and the GI50 (EKVX) was 4.41 µM (inactive). For the same compound, the GI50 (SW-620) was > 49.7 µM (inactive), the GI50 (K562) was 5.62 µM (inactive) and the GI50 (HCT-116) was 3.84 µM (inactive). The GI50 (A549) was 4.65 µM (inactive), the GI50 (NCI/ADR-RES) was 16.4 µM (inactive) and the GI50 (MDA-MB-435) was 9.27 µM (inactive). For the same compound, the GI50 (U-251) was 9.98 µM (inactive), the GI50 (NCI-H23) was 2.62 µM (inactive) and the GI50 (HOP-92) was 1.95 µM (inactive). For the same compound, the GI50 (NCI-H522) was 3.24 µM (inactive), the GI50 (RXF 393) was 0.798 µM (active) and the GI50 (HT-29) was 2.42 µM (inactive). The GI50 (CAKI-1) was 1.21 µM (inactive), the GI50 (SNB-75) was 4.44 µM (inactive) and the GI50 (SK-OV-3) was 5.19 µM (inactive). The GI50 (TK-10) was 1.52 µM (inactive), the GI50 (PC-3) was 1.33 µM (inactive) and the GI50 (SK-MEL-5) was 16.6 µM (inactive). The GI50 (COLO 205) was 1.33 µM (inactive), the GI50 (KM12) was 10.2 µM (inactive) and the GI50 (T47D) was 1.3 µM (inactive). For the same compound, the GI50 (UACC-257) was 2.04 µM (inactive), the GI50 (A498) was 1.86 µM (inactive) and the GI50 (OVCAR-4) was 7.23 µM (inactive). For the same compound, the GI50 (SF-295) was 6.56 µM (inactive), the GI50 (RPMI-8226) was 10 µM (inactive) and the GI50 (SK-MEL-28) was 9.42 µM (inactive). For the same compound, the GI50 (SN12C) was 1.72 µM (inactive), the GI50 (SF-539) was 2.67 µM (inactive) and the GI50 (OVCAR-5) was 2.88 µM (inactive). For the same compound, the GI50 (NCI-H460) was 1.61 µM (inactive) and the GI50 (MDA-MB-231) was 1.97 µM (inactive).

In the case of COc1cc2c(cc1OC)C(C1(O)CCCCC1)NCC2 (centres undefined), the GI50 (XF498) is reported as > 100 µM (inactive), the GI50 (UO-31) is reported as > 100 µM (inactive) and the GI50 (Malme-3M) is reported as > 100 µM (inactive). For the same compound, the GI50 (OVCAR-8) was > 100 µM (inactive), the GI50 (M14) was > 100 µM (inactive) and the GI50 (IGROV-1) was > 100 µM (inactive). For the same compound, the GI50 (ACHN) was > 100 µM (inactive), the GI50 (LOX IMVI) was > 100 µM (inactive) and the GI50 (LXFL 529) was > 100 µM (inactive). The GI50 (M19-MEL) was > 100 µM (inactive), the GI50 (SR) was > 100 µM (inactive) and the GI50 (HL-60) was > 100 µM (inactive). For the same compound, the GI50 (HCC 2998) was > 100 µM (inactive), the GI50 (OVCAR-3) was > 100 µM (inactive) and the GI50 (UACC-62) was > 100 µM (inactive). For the same compound, the GI50 (NCI-H226) was > 100 µM (inactive), the GI50 (SK-MEL-2) was > 100 µM (inactive) and the GI50 (CCRF-CEM) was > 100 µM (inactive). The GI50 (MOLT-4) was > 100 µM (inactive), the GI50 (HOP-62) was > 100 µM (inactive) and the GI50 (SF-268) was > 100 µM (inactive). For the same compound, the GI50 (HCT-15) was > 100 µM, the GI50 (EKVX) was > 100 µM (inactive) and the GI50 (SW-620) was > 100 µM (inactive). The GI50 (K562) was > 100 µM (inactive), the GI50 (HCT-116) was > 100 µM (inactive) and the GI50 (U-251) was > 100 µM (inactive). The GI50 (NCI-H23) was > 100 µM (inactive), the GI50 (HOP-92) was > 100 µM (inactive) and the GI50 (RXF 393) was > 100 µM (inactive). For the same compound, the GI50 (HT-29) was > 100 µM (inactive), the GI50 (SNB-75) was > 100 µM (inactive) and the GI50 (DMS-273) was > 100 µM (inactive). The GI50 (SK-OV-3) was > 100 µM (inactive), the GI50 (TK-10) was > 100 µM (inactive) and the GI50 (SK-MEL-5) was > 100 µM (inactive). For the same compound, the GI50 (DLD-1) was > 100 µM (inactive), the GI50 (COLO 205) was > 100 µM (inactive) and the GI50 (KM12) was > 100 µM (inactive). The GI50 (UACC-257) was > 100 µM (inactive), the GI50 (SF-295) was > 100 µM (inactive) and the GI50 (RPMI-8226) was > 100 µM (inactive). For the same compound, the GI50 (SK-MEL-28) was > 100 µM (inactive), the GI50 (SN12C) was > 100 µM (inactive) and the GI50 (KM-20L2) was > 100 µM (inactive). For the same compound, the GI50 (OVCAR-5) was > 100 µM (inactive) and the GI50 (NCI-H460) was > 100 µM (inactive).

In the case of C[Si]12OCCCN(CCO1)CCO2, the GI50 (UO-31) is reported as > 100 µM (inactive), the GI50 (Malme-3M) is reported as > 100 µM (inactive) and the GI50 (OVCAR-8) is reported as > 100 µM (inactive). For the same compound, the GI50 (IGROV-1) was > 100 µM (inactive), the GI50 (SNB-78) was > 100 µM (inactive) and the GI50 (ACHN) was > 100 µM (inactive). The GI50 (LXFL 529) was > 100 µM (inactive), the GI50 (M19-MEL) was > 100 µM (inactive) and the GI50 (SR) was > 100 µM (inactive). For the same compound, the GI50 (HCC 2998) was > 100 µM (inactive), the GI50 (OVCAR-3) was > 100 µM (inactive) and the GI50 (UACC-62) was > 100 µM (inactive). The GI50 (SK-MEL-2) was > 100 µM (inactive), the GI50 (CCRF-CEM) was > 100 µM (inactive) and the GI50 (786-0) was > 100 µM (inactive). The GI50 (SNB-19) was > 100 µM (inactive), the GI50 (MOLT-4) was > 100 µM (inactive) and the GI50 (SF-268) was > 100 µM (inactive). For the same compound, the GI50 (EKVX) was > 100 µM (inactive), the GI50 (SW-620) was > 100 µM (inactive) and the GI50 (K562) was > 100 µM (inactive). The GI50 (HCT-116) was > 100 µM (inactive), the GI50 (A549) was > 100 µM (inactive) and the GI50 (U-251) was > 100 µM (inactive). The GI50 (NCI-H23) was > 100 µM (inactive), the GI50 (HOP-92) was > 100 µM (inactive) and the GI50 (NCI-H522) was > 100 µM (inactive). For the same compound, the GI50 (RXF 393) was > 100 µM (inactive), the GI50 (HT-29) was > 100 µM (inactive) and the GI50 (CAKI-1) was > 100 µM (inactive). For the same compound, the GI50 (SNB-75) was > 100 µM (inactive), the GI50 (DMS-273) was > 100 µM (inactive) and the GI50 (SK-OV-3) was > 100 µM (inactive). For the same compound, the GI50 (TK-10) was > 100 µM (inactive), the GI50 (SK-MEL-5) was > 100 µM (inactive) and the GI50 (DLD-1) was > 100 µM (inactive). The GI50 (COLO 205) was > 100 µM (inactive), the GI50 (KM12) was > 100 µM (inactive) and the GI50 (UACC-257) was > 100 µM (inactive). The GI50 (A498) was > 100 µM (inactive), the GI50 (SF-295) was > 100 µM (inactive) and the GI50 (RPMI-8226) was > 100 µM (inactive). For the same compound, the GI50 (SK-MEL-28) was > 100 µM (inactive), the GI50 (SN12C) was > 100 µM (inactive) and the GI50 (SF-539) was > 100 µM (inactive). The GI50 (DMS-114) was > 100 µM (inactive), the GI50 (OVCAR-5) was > 100 µM (inactive) and the GI50 (NCI-H460) was > 100 µM (inactive).
